Reference: patent US20100278787A1, “CARDIOMYOCYTE-LIKE CELL CLUSTERS DERIVED FROM HBS CELLS” (Cellartis AB, priority 2007, published 2010)

Experiments:
[1] = tested on: hERG channel in CMLC
[2] = tested on: hBS cells (SA002); experiment: Yield of beating CMLC from differentiating hBS cells, counted visually; type: cell-based, human; conditions: for Yield of beating CMLC compared to control cultures not receiving additional factors: 5 μM pre-plating in addition to Activin A 10 ng/ml and bFGF 12 ng/ml, day 7 after plating
Method: Spontaneously contracting cells were derived from undifferentiated hBS cells cultured on MEF cells (Heins et al 2004 Stem Cells). The cell lines used for this experiment could be the hBS cell line SA002, SA121, SA001, SA002.5, SA461 (Cellartis AB, Goteborg, Sweden, http://www.cellartis.com) and they can be propagated as described Heins et al. 2004. These cell lines are listed in the NIH stem cell registry and the UK Stem Cell bank. The hBS cells were detached from the feeder layer by incubation with collagenase IV (200 U/ml), for 10-15 minutes at 37° C. The cell suspension was transferred to a 15 ml tube, and after the cells had sedimented, the supernatant was removed. The colonies were resuspended in Knock Out DMEM supplemented with 20% FBS, 1% penicillin-streptomycin, 1% Glutamax, 0.5 mmol/l β-mercaptoethanol and 1% non-essential amino acids (all from Invitrogen, Carlsbad, Calif.) and dissociated mechanically into small aggregates of undifferentiated cells (0.2-0.4 mm) using a pipette. This cell suspension was distributed (200 μl/well) into a 96-well v-bottom plate (Corning Incorporated, NY, USA) at a concentration of approximately 4-6 colonies per well and centrifuged for 5 min at 400×g. The plate was then incubated at 37° C. for 3-8 days. The 3D structures that formed were then transferred to gelatine coated dishes containing culture medium (same as above). After a couple of days (normally 1-4) of culture, spontaneously contracting areas with cluster of contracting cells (CMLC) occurred and could be visually identified using a light microscope. Medium was changed every second to third day. New spontaneously beating areas continued to appear for up to 20 days post-plating. The clusters are isolated by mechanical dissection under visual inspection using a light microscope from the 3D-structures and subjected to further characterization. […] These were then manually isolated from the surrounding cells and plated onto laminin coated glass. After three days in culture, the clusters were fixed and stained for nuclei and the protein cardiac troponin 1, which is known to be specific for cardiac tissue. These clusters were then examined with confocal microscopy.
CMLC were derived from undifferentiated hBS cells (cell line SA002, LOTAL002, passage 21, 22, 44 and 51) essentially as described in Example 1. […]
The number of contracting CMLC was visually determined at day 6 or 7 after plating of formed 3D structures. […] The effect of the treatment on beating area characteristics was determined in terms of distribution in beating frequency, length, width, calculated area and structure in two experiments; one using plating medium with 20% FBS and one with plating medium containing 2% FBS. […]

[3] = tested on: contracting clusters of cells; experiment: Functional receptors: contractile activity of contracting areas after pharmacological agents (method of Norström et al. 2006); type: cell-based, human; conditions: agents administered to contracting areas; method and Table 1 of Norström et al. 2006
[4] = tested on: CMLC clusters; experiment: Transmembrane action potential (TAP) microelectrode recordings in beating CMLC; type: cell-based, human
Method: Transmembrane action potentials (TAP) were recorded by using a microelectrode filled with 3 M KCl (resistance 10 to 20 MΩ) connected via an Ag/AgCl junction to a high impedance amplifier (Intracellular Electrometer IE-210, Warner Instrument Corporation). Sharp microelectrodes were prepared using a glass, and a micromanipulator was used to lower the electrode into the bath and enter the cluster. The same impalement was kept for as long as possible. […] Steady-state recordings of action potentials at spontaneous frequency or during electric stimulation of 1-4 Hz were made. All calculations were made on the average of 10 (consecutive) action potentials. The bath was continuously perfused with Tyrode's solution consisting of (in mmol/L) 130 NaCl, 4 KCl, 0.5 MgSO4.7H20, 1.8 NaH2PO4xH2O, 18 NaHCO3, 5.5 glucose, 1.8 CaCl2 and kept at 37° C.
Electrical stimulation of the CMLC was done using field stimulation by means of a mobile electrode.
Change in APD was calculated and used to determine prolongation and assess triangularization.
To investigate the role of the funny current (If) in spontaneously contracting CMLC, 10 μM zatebradine was administered.

[5] = tested on: spontaneously beating CMLC; experiment: Visually registered contraction rate of spontaneously beating CMLC; type: cell-based, human; conditions: 5 μM
Method: FIG. 28. The effect of Zatebradine on the beating frequency of contracting CMLC derived from hBS cells. […] The change in beating frequency was calculated by visually registering the contraction rate before and after Zatebradine administration. Values are expressed as beats per minute±SEM, n=32, ***=p<0.001. Statistical significance was calculated using paired t-test. […] The mRNA expression of HCN4 and Troponin T2 was measured using real-time RT quantitative PCR and related to the expression of the endogenous control CREBBP. Values are expressed as relative gene expression as compared to a reference sample set to 100% (n=32). Statistical analysis was performed using linear regression analysis.
CMLC were derived from undifferentiated hBS cells essentially as described in Example 1 using cell line SA002. Zatebradine is a substance known to block so called funny channels, e.i. hyperpolarization-activated, cyclic nucleotide-gated (HCN) channels 1-4, which are involved in the regulation of cardiomyocyte contraction and cardiac rate. In order to investigate the effect of Zatebradine on CMLC derived from hBS cells and to correlate this effect to age and gene expression, Zatebradine was administered at a concentration of 5 μM to 32 spontaneously beating clusters of different ages. […] Gene expression was quantified using real-time RT quantitative PCR. […]

COc1cc(N)c(Cl)cc1C(=O)NC1CCN(CCCOc2ccc(F)cc2)CC1OC (centres unmarked) [Cisapride]
Field action potential duration (indicator of QT prolongation) ([1]; increasing drug concentrations, FIGS. 5c and 5d): dose dependent prolongation of the action potential

COc1ccc(CCN2CCC(Nc3nc4ccccc4n3Cc3ccc(F)cc3)CC2)cc1 [Astemizol]
Delayed repolarisation of the cardiac field potentials ([1]; cumulative 0, 100 pM, 1 nM, 10 nM, 100 nM, 1000 nM): selective block and sustained prolongation of the repolarizing component at low nanomolar concentrations
Delayed repolarization of the cardiac field potential ([1]; hES-CMC cluster on MEA, cumulative 0, 1 nM, 10 nM, 100 nM, 1 μM, 10 μM, FIG. 30): selective block and sustained prolongation of the repolarizing component at nanomolar concentrations

Cn1cc(C2=C(c3ccc(Cl)cc3Cl)C(=O)NC2=O)c2ccccc21 [SB 216763]
Yield of beating CMLC compared to control cultures not receiving additional factors [2]: ~3 times

CNC[C@H](O)c1cccc(O)c1 [Phenylephrine]
Effect on contractile activity / contraction frequency [3]: stimulated in a dose-dependent manner

NC[C@H](O)c1ccc(O)c(O)c1 [Noradrenaline]
Effect on contractile activity / contraction frequency [3]: stimulates contractile activity normally in a concentration-response manner

Fc1ccc(-c2nc3n(c2-c2ccncc2)CCS3)cc1 [SKF-86002]
Yield of beating CMLC compared to control cultures not receiving additional factors [2]: ~3 times

COc1ccc(CCN(C)CCCN2CCc3cc(OC)c(OC)cc3CC2=O)cc1OC [Zatebradine]
Effect on action potential duration ([4]; 10 μM Zatebradine, FIG. 21): increased duration
Effect on beating frequency ([4]; 10 μM Zatebradine, FIG. 21): slowed beating frequency
Beating of some clusters [5]: completely blocked
Decrease of the beating frequency of CMLC, on average ([5]; 32 spontaneously beating clusters of different ages): about 50%

Cc1cccc(CCN2CCC(C(=O)c3ccc(NS(C)(=O)=O)cc3)CC2)n1 [E-4031]
Action potential prolongation ([4]; 0.5-1 μM E-4031, all CMLC phenotypes): concentration dependent action potential prolongation in all CMLC phenotypes
Average change in percent of APD90 ([4]; atrial-like CMLC, 0.5 μM E-4031, spontaneous f): 27.27 ± 7.61 (7) %
Average change in percent of APD90 ([4]; atrial-like CMLC, 1 μM E-4031, spontaneous f): 70.08 ± 25.91 (2) %
Average change in percent of APD90 ([4]; nodal-like CMLC, 0.5 μM E-4031, spontaneous f): 43.16 ± 21.00 (4) %
Average change in percent of APD90 ([4]; ventricle-like CMLC, 0.5 μM E-4031, 1 Hz): 34.89 ± 9.83 (4) %
Average change in percent of APD90 ([4]; ventricle-like CMLC, 0.5 μM E-4031, 2 Hz): 27.92 ± 9.23 (2) %
Average change in percent of APD90 ([4]; ventricle-like CMLC, 0.5 μM E-4031, spontaneous f): 16.67 ± 10.64 (5) %
Average change in percent of APD90 ([4]; ventricle-like CMLC, 1 μM E-4031, 1 Hz): 59.33 ± 31.28 (2) %
Average change in percent of APD90 ([4]; ventricle-like CMLC, 1 μM E-4031, 2 Hz): 38.14 ± 36.85 (3) %

LIF: protein growth factor supplemented at 1000 U/ml post-plating
Yield of beating CMLC ([2]; Activin A and bFGF pre-plating, LIF 1000 U/ml for 4 days post-plating, counted day 7 and day 14): further increased the generation of beating CMLC
Improvement of yield compared to controls that only receive medium ([2]; medium containing Activin A and/or bFGF supplemented with LIF post-plating, FIG. 14): ~2 fold

CC(CCc1ccccc1)NCC(O)c1ccc(O)c(C(N)=O)c1 (centres unmarked) [labetolol]
Effect on contractile activity / contraction frequency [3]: reduction in the stimulation of contraction frequency exerted by adrenaline

CC(C)NCC(O)COc1ccc(CC(N)=O)cc1 (centres unmarked) [atenolol]
Effect on contractile activity / contraction frequency [3]: stimulatory effect is reduced within minutes

CC(COc1ccccc1)N(CCCl)Cc1ccccc1 (centres unmarked) [phenoxybenzamine]
Effect on contractile activity / contraction frequency [3]: reduce the contraction frequency

CNCC(O)c1ccc(O)c(O)c1 (centres unmarked) [Adrenaline]
Effect on contractile activity / contraction frequency [3]: stimulatory effect is registered within minutes
